Tests used:
[1] = tested on: triticum vulgare L. (wheat); experiment: activity on agrarian species, soil treatment one day after sowing; type: in vivo
Description: (§1) The infesting species and the agrarian species have been indicated in Table 1 by letters, as follows:
N = triticum vulgare L. (wheat)
(§2) Method of evaluation of the results (of tests):
(§3) 0 = no activity and no difference with respect to the control;
(§4) 1 slight differences with respect to the control;
(§5) 3 = considerable activity with damages that definitely impair the further development of most of the small plants; an activity degree already useful for practical purposes;
(§6) 4 = maximum of activity with lack of germination or total containment of the small plants in the emerging stage.
(§7) In the case of an intermediate activity between two classes of the scale, both values are recorded with the one which corresponds to the preeminent activity preceding.
(§8) TABLE 2 reports the activity data of other compounds that fall within the class which is the object of this invention.
(§9) TABLE 3 reports data on the herbicidal activity against infesting herbs, while TABLE 4 reports data concerning the activity on useful species of agricultural cultivations. These tables employ the criterion explained previously. The product was spread on the soil one day after sowing, in quantities of 1, 3, 6, 8, 10, 12 and 14 kg/ha.

chenopodium album L. = experiment: herbicidal activity, soil treatment one day after sowing; type: in vivo
oryza sativa L. (rice) = experiment: activity on agrarian species, soil treatment one day after sowing; type: in vivo
Description: as §1
P = oryza sativa L. (rice)
as §2, §3, §4, §5, §6, §7, §8, §9

[2] = tested on: echinocloa crus-galli R.S.; experiment: herbicidal activity, soil treatment one day after sowing; type: in vivo
vicia sativa L. = experiment: as above; type: in vivo
Summary of the method: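 Pre-emergence soil treatment one day after sowing; activity scored visually on a […] scale against untreated control, from slight difference (1) to no germination or total containment at emergence (4); intermediate activity recorded as both classes, preeminent value first.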

[3] = tested on: amaranthus retroflexus L.; experiment: as above; type: in vivo
artemisia vulgaris L. = experiment: as above; type: in vivo
infesting gramineae = experiment: herbicidal action on infesting plants (general statements); type: in vivo; conditions: in words
Description: (§10) It is understood that all the data given herein shall have no limiting character on the object of this invention.

zea mais L. (corn) = experiment: activity on agrarian species, soil treatment one day after sowing; type: in vivo
Description: as §1, §2, §3, §4, §5, §6, §7, §8, §9

setaria glauca L. = experiment: herbicidal activity, soil treatment one day after sowing; type: in vivo
useful plants = experiment: phytotoxic action on useful plants (general statements); type: in vivo, useful gramineae; conditions: in words
Description: as §10

pisum sativum L. (pea) = experiment: activity on agrarian species, soil treatment one day after sowing; type: in vivo
Description: as §1
L = pisum sativum L. (pea)
as §2, §3, §4, §5, §6, §7, §8
TABLE 3 reports data on the herbicidal activity against infesting herbs, while TABLE 4 reports data concerning the activity on useful species of agricultural cultivations. These tables employ the criterion explained previously. […]

avena sativa (oats) = experiment: as above; type: in vivo, Avena sativa L.
Description: as §1, §2, §3, §4, §5, §6, §7, §8, §9

[4] = tested on: beta vulgaris L. (sugar-beet); experiment: as above; type: in vivo; conditions: 6 kg/ha
Description: as §1
H = beta vulgaris L. (sugar-beet)
as §2, §3, §4, §5, §6, §7, §8, §9

solanum Lycopersicum L. = experiment: as above; type: in vivo; conditions: 6 kg/ha
Description: as §1
M = solanum Lycopersicum L.
as §2, §3, §4, §5, §6
In the case of an intermediate activity between two classes of the scale, both values are recorded with the one which corresponds to the preeminent activity preceding. […]

[5] = tested on: phaseolus vulgaris (bean); experiment: as above; type: in vivo, Phaseolus vulgaris L.
Description: as §1
I = phaseolus vulgaris (bean)
as §2, §3, §4, §5, §6, §7, §8, §9

Row | Compound | activity on C, 0-4 scale (chenopodium album L.; 2 kg/ha) | activity on C, 0-4 scale (chenopodium album L.; 4 kg/ha) | activity on C, 0-4 scale (chenopodium album L.; 6 kg/ha) | activity on D, 0-4 scale ([2]; 2 kg/ha) | activity on D, 0-4 scale ([2]; 4 kg/ha) | activity on D, 0-4 scale ([2]; 6 kg/ha) | activity on F, 0-4 scale (vicia sativa L.; 2 kg/ha) | activity on F, 0-4 scale (vicia sativa L.; 4 kg/ha) | activity on F, 0-4 scale (vicia sativa L.; 6 kg/ha) | activity on A, 0-4 scale ([3]; 2 kg/ha) | activity on A, 0-4 scale ([3]; 4 kg/ha) | activity on A, 0-4 scale ([3]; 6 kg/ha) | activity on B, 0-4 scale (artemisia vulgaris L.; 2 kg/ha) | activity on B, 0-4 scale (artemisia vulgaris L.; 4 kg/ha) | activity on B, 0-4 scale (artemisia vulgaris L.; 6 kg/ha) | herbicidal action (infesting gramineae) | activity on E, 0-4 scale (setaria glauca L.; 2 kg/ha) | activity on E, 0-4 scale (setaria glauca L.; 4 kg/ha) | activity on E, 0-4 scale (setaria glauca L.; 6 kg/ha) | phytotoxic action on useful plants (useful plants) | further results
1 | CCN(CC)C(=O)c1cc(Cl)cc(Cl)c1 [PA291, 3,5-dichloro-N,N-diethyl-benzamide, reference compound] | 2-3 | 3 | 3 | 1-2 | 2-3 | 4 | 2-3 | 3 | 3-4 | 2-3 | 3 | 3-4 | 3 | 3-4 | 4 | very active | 2-3 | 3 | 4 | phytotoxic action of considerable intensity | activity on N, 0-4 scale ([1]; in vivo): 4; activity on P, 0-4 scale (oryza sativa L. (rice); in vivo): 4; activity on O, 0-4 scale (zea mais L. (corn); in vivo): 4
2 | CCC(C)N(C(=O)c1ccc(Cl)c(Br)c1)C(C)CC (stereo not drawn) [PA489, 3-bromo,4-chloro-N,N-di-sec.butyl-benzamide] | 1 | 1-2 | 2 | 3-2 | 3-4 | 3-4 | 0 | 0 | 0-1 | 1 | 1-2 | 3 | 0-1 | 1 | 3 |  | 3 | 4-3 | 4 |  | activity on N, 0-4 scale ([1]; 3 kg/ha): 0; activity on N, 0-4 scale ([1]; 6 kg/ha): 0; activity on P, 0-4 scale (oryza sativa L. (rice); 3 kg/ha): 0; activity on P, 0-4 scale (oryza sativa L. (rice); 6 kg/ha): 0; activity on L, 0-4 scale (pisum sativum L. (pea); 3 kg/ha): 0; activity on L, 0-4 scale (pisum sativum L. (pea); 6 kg/ha): 0; activity on G, 0-4 scale (avena sativa (oats); 3 kg/ha): 0; activity on G, 0-4 scale (avena sativa (oats); 6 kg/ha): 0; activity on H, 0-4 scale [4]: 1; activity on M, 0-4 scale (solanum Lycopersicum L.): 1; activity on O, 0-4 scale (zea mais L. (corn); 3 kg/ha): 0; activity on O, 0-4 scale (zea mais L. (corn); 6 kg/ha): 0; activity on I, 0-4 scale ([5]; 3 kg/ha): 0; activity on I, 0-4 scale ([5]; 6 kg/ha): 0
3 | CCCN(CCC)C(=O)c1cc(Cl)cc(Cl)c1 [3,5-dichloro-N,N-di-n.propyl-benzamide] |  |  |  |  |  |  |  |  |  |  |  |  |  |  |  | very active |  |  |  | phytotoxic action of considerable intensity | 

From patent US3982931A, “N,N-di-sec.butyl-benzamide herbicides” (priority 1967, dated 1976)
